# Test results reported in patent US20090239884A1, “Methods of Treating Inflammation” (priority 2006, published 2009).
# “Also recorded” adds a separate entry of the source. Read-outs that look alike come from different tables or passages of the source.
# Key:
# [1] = system: Con A-stimulated mouse splenocytes; assay: transwell chemotaxis assay in response to CXCL12, Con A-stimulated splenocytes; type: cell-based; conditions: for effect on CXCL12-induced migration: forskolin 25 μM, motapizone 10 μM, piclamilast 1 μM
# Description: (§1) Isolation of murine splenocytes. Splenocytes were isolated from 6-8 week old C57BL/6 mice obtained from Jackson Laboratories (Bar Harbor, Me.). Spleens were removed and a single-cell suspension prepared using 40 μm cell strainers (Fisher Scientific). Cells were washed with RPMI 1640 medium supplemented with 5% fetal bovine serum, 2 mM L-glutamine, 100 U/ml penicillin and […] (all from GIBCO). Red blood cells were lysed using standard lysis buffer (0.15M NH4Cl, 10mM KHCO3, 0.1 mM EDTA PH 7.4). Cells were then washed and used in chemotaxis assays either as unstimulated cells or after stimulation with Con A ([…]) as indicated.
# (§2) Preparation of Test Reagents. […] This concentration of DMSO had no effect on migration of splenocytes in the presence or absence of CXCL12. CXCL12 was prepared as a 100 μg/ml stock solution in PBS+0.1% BSA, Con A was prepared as a stock of 2.5 mg/ml in PBS, and dibutyryl cAMP and Rp-cAMPS were prepared as 50 mM stock solutions in water, and these reagents were diluted directly into the chemotaxis assays.
# (§3) Chemotaxis Assay. Chemotaxis assays were done in 24-well transwell plates with a pore size of 5 μm (Costar, Corning). Splenocytes were placed in medium at a concentration of 3×10^6 cells/ml. Where test agents were used, splenocytes were pretreated with the agent or vehicle for 45 to 60 min, following which 100 μl of the splenocyte suspension was placed into the upper chamber of transwell plates, and the lower chamber was filled with 600 μl of medium. When added to induce migration, CXCL12 (250 ng/ml) was added to the lower chamber only. Other test reagents were added as indicated to both the upper and lower chambers. After 4 hours of incubation at 37° C. in 5% CO2, transwell inserts were gently removed and the number of cells that migrated into the lower chamber were counted by withdrawing 500 μl of lower chamber medium, mixing it with 10 ml of buffer and counting the cells on a Coulter Counter (Beckman Coulter Z series). Where results are expressed as % of CXCL12-stimulated migration, this was calculated as follows: (cells migrated in presence of CXCL12 and test reagent—cells migrated in medium alone)/(cells migrated in presence of CXCL12-cells migrated in medium alone)×100. Experimental points for all chemotaxis assays were performed in triplicate.
# (§4) Splenocytes isolated from mice were assayed for migration in response to CXCL12 (250 ng/ml), either directly (unstimulated) or following 48 hr of incubation with 3 μg/ml Con A (stimulated), as described in Methods. To test for effects of dibutyryl cAMP, cells were pretreated with dibutyryl cAMP (500 μM) for 45-60 min prior to beginning the chemotaxis assay, and the assays were conducted with dibutyryl cAMP (db-cAMP) present (500 μM) in both the upper and lower chambers of the transwell plates. Data plotted are derived from a single experiment performed in triplicate. *p<0.001; **p<0.02.
# PDE3 = conditions: read-out: Potency (IC50) PDE3; cited from earlier work
# PDE1 = conditions: read-out: Potency (IC50) PDE1; cited from earlier work
# [2] = system: Con A-activated splenocytes on TNF-α activated bEnd.3 endothelial cells; assay: T cell-endothelial cell adhesion assay (Example 13); type: cell-based, mouse; conditions: for ability to reduce adhesion of activated T cells to endothelial cells: IBMX 300 μM, piclamilast 1 μM, motapizone 1 μM; for reversal of the inhibitory effect of DP on T cell adhesion: DP 100 μM with adenosine deaminase 1 U/ml or CXCL12 250 ng/ml
# Description: (§5) Cell treatment. Confluent bEnd.3 monolayers were incubated with 200 ng/ml TNF-α (Peprotech, Rocky Hill, N.J.) at 37° c. for 2 hours. […] Christoff Zitt and Armin Hatzelmann (Altana Pharma, Konstanz, Germany). Con A-activated splenocytes or CD4^+CD25^− T cells activated with plate-bound anti-CD3 mAb were treated with the same reagents for 20, 45, or 90 minutes.
# Adhesion assays. Adhesion assays were performed in 24-well plates with a confluent layer of bEnd.3 cells. Splenocytes or CD4^+CD25^− T cells were labeled with 5 μM Calcein AM (Molecular Probes, Eugene, Oreg.) and treated as described above. 7×10^5 pretreated splenocytes or CD4^+CD25^− T cells per well were incubated on bEnd.3 cells in RPMI media. After 30 minutes at 37° C., non-adherent cells were removed by washing with D-PBS. For analysis, 7×10^5 Calcein AM labeled splenocytes or CD4^+CD25^− T cells were used as positive controls. Fluorescence was read in a Victor 3v microplate reader (Perkin Elmer, Waltham, Mass.) with a fluorescein filter set. The percentage of adherent T cells, i.e. labeled cells resistant to detachment, was calculated as total fluorescence of well divided by fluorescence of 7×10^5 Calcein AM labeled cells multiplied by 100.
# In FIGS. 20A-20B, splenocytes from C57BL/6 mice were activated with Con A (3 μg/ml) for 48 hours followed by a 45 minute incubation with (A) IBMX (300 μM), piclamilast (Picl, 1 μM) or DP (100 μM), (B) dibutryl cAMP (Db-cAMP, 500 μM) or DP in the presence or absence of adenosine deaminase (AD, 1 U/ml) or vehicle (0.1% DMSO). bEnd.3 endothelial cells were activated for 2 hours with TNF-α (200 ng/ml) and incubated with the same reagents for the final 45 minutes before splenocytes were added to the bEnd.3 cells for the adhesion assay. The data are presented as the mean±SEM percentage of splenocytes which were resistant to detachment. Results are representative of at least three independent experiments run in triplicate (*p<0.05, **p<0.001; one way ANOVA followed by Bonferroni t-test).
# bEnd.3 endothelial cells = assay: qRT-PCR gene expression in TNF-α activated bEnd.3 endothelial cells; type: cell-based, mouse; conditions: 45 minutes, DP 100 μM, dibutryl cAMP 500 μM
# Description: Quantitative real-time RT-PCR analysis. 10 ng cDNA, or 2 μl cDNA for LCM studies, was amplified by qRT-PCR in a 25 μl reaction using SYBR Green PCR Master Mix (Applied Biosystems, Foster City, Calif.). Primers were designed using Primer Express software v3.0 and primer efficiency verified by slope analysis to be 100%±2.5%. qRT-PCR was performed using an ABI 7500 fast system and data analyzed using the Δ^ct method (SDS software v3.0). Amplicon sizes were approximately 100 bp.
# as §5
# In FIG. 23A, bEnd.3 endothelial cells were activated for 2 hours with TNF-α (200 ng/ml) and (A) DP (100 μM) or vehicle (0.1% DMSO) for the final 45 minutes. PDE gene expression was then analyzed by qRT-PCR and the data presented as the mean+SEM of 3 independent experiments assayed in triplicate (*p<0.05, **p<0.001; unpaired t-test).
# The data are shown as a mean±SEM percentage of vehicle control and represent 3 independent experiments assayed in triplicate (*p<0.05, * *p<0.001; unpaired t-test).
# [3] = system: unstimulated mouse splenocytes; assay: transwell chemotaxis assay in response to CXCL12, unstimulated splenocytes; type: cell-based
# Description: as §1, §2, §3, §4
# PDE4 [4] = assay: PDE4 inhibition; type: biochemical
# [5] = system: Con A activated splenocytes on bEND.3 brain derived endothelial cell monolayers; assay: adhesion of Con A activated splenocytes to bEND.3 monolayer (Example 4); type: cell-based, mouse; conditions: piclamilast 1 μM; static assay
# Description: The hypothesis was first tested using a series of experiments determining T cell adhesion to vascular endothelial cells. Confluent bEND.3 brain derived endothelial cell monolayers were pretreated with 100 ng/ml TNF-α. […] Splenocytes were allowed to adhere for 30 min at 37° C. without shaking after which nonadherent cells were removed by washing the wells 4× with prewarmed D-PBS. For analysis, 7×10^5 calcein AM labeled cells were added to an empty well as a representation of maximal possible fluorescence. The fluorescence of each well was read by a Victor 3v microplate reader with a fluorescein filter set. Background fluorescence (medium only) was subtracted from each well and percentage of adherent cells that is resistant to detachment under the conditions of washing the wells was calculated as fluorescence of well in percent of maximal fluorescence (without washing).
# PDE4 [6] = conditions: cited from earlier work
# [7] = system: peripheral blood mononuclear cells; conditions: cited from earlier work
# T cells = conditions: cited from earlier work
# [8] = Mus musculus, Splenocyte, 4 h, read-out: inhibition of CXCL12-induced migration
compound,measurement,setting,value
"Nc1ncnc2c1ncn2[C@@H]1O[C@@H]2COP(O)(=S)O[C@H]2[C@H]1O (single isomer, unassigned) [Rp-cAMPS, 3′,5′-cyclic monophosphorothioate, Rp-isomer]",reversal of dipyridamole inhibition of CXCL12-stimulated chemotaxis,[1]; Rp-cAMPS 1 mM with dipyridamole 100 μM,reversed; also recorded: reversal
CN(C(=O)CCCOc1ccc2[nH]c(=O)ccc2c1)C1CCCCC1 [Cilostamide],IC50,PDE3,5 nM
CCOC(=O)C1=C[C@]2(CC)CCCN3CCc4c(n1c1ccccc41)[C@@H]32 [Vinpocetine],IC50,PDE1,5000 to 25000 nM
CCCC(=O)Nc1ncnc2c1ncn2[C@@H]1O[C@@H]2COP(=O)(O)O[C@H]2[C@H]1OC(=O)CCC [dibutyryl cAMP],reduction of adhesion of activated T cells to bEnd.3 endothelial cells,"[2]; 45 minute incubation, DP 100 μM, dibutryl cAMP 500 μM, adenosine deaminase 1 U/ml",81%
same,inhibition at 500 µM,[1]; [8],29%
same,reduction of ICAM-1 mRNA expression,bEnd.3 endothelial cells,42%
same,increase of claudin-5 gene expression,bEnd.3 endothelial cells; 8-bromo-cAMP 500 μM,70%
same,reduction of CXCL12 gene expression,bEnd.3 endothelial cells; 8-bromo-cAMP 500 μM,48%
same,reduction of VCAM-1 gene expression,bEnd.3 endothelial cells; 8-bromo-cAMP 500 μM,33%
same,inhibition at 500 µM,[3]; [8],54%
C=C[C@@]1(C)CC(=O)[C@]2(O)[C@@]3(C)[C@@H](O)CCC(C)(C)[C@@H]3[C@H](O)[C@H](OC(C)=O)[C@@]2(C)O1 [forskolin],effect on CXCL12-induced migration,[1]; Con A-stimulated splenocytes,no effect at all
same,inhibition at 25 µM,[3]; [8],31%
CC1CC(=O)NN=C1c1cc(-n2ccnc2)cs1 (centres unmarked) [motapizone],ability to reduce adhesion of activated T cells to endothelial cells,[2]; 45 minute incubation,no inhibitory effect
same,effect on CXCL12-induced migration,[1]; Con A-stimulated splenocytes,no statistically significant effect; also recorded: not inhibited at all
COc1ccc(C(=O)Nc2c(Cl)cncc2Cl)cc1OC1CCCC1 [piclamilast],ability to reduce adhesion of activated T cells to endothelial cells,[2]; 45 minute incubation,no short term suppressive effect
same,Ki,PDE4 [4]; purified PDE4,~0.3 nM
same,concentration margin before any other PDE gene family is inhibited,PDE4 [4]; relative to PDE4 inhibition,more than 5 orders of magnitude
same,effect on CXCL12-induced migration,[1]; Con A-stimulated splenocytes,no statistically significant effect; also recorded: not inhibited at all
same,effect on adhesion of Con A-stimulated splenocytes to endothelial cells,[5],not inhibited at all
same,IC50,"PDE4 [6]; read-out: IC50, PDE4",1 nM
COc1ccc(C2CNC(=O)C2)cc1OC1CCCC1 (centres unmarked) [rolipram],lipopolysaccharide-stimulated release of TNF-α,[7],inhibit
same,adhesion of T cells,T cells; 8-48 hour treatment,blocked
same,adhesion to vascular ligands or endothelial cells,T cells; exposure for a short period of 4 hours,no effect
same,T cell adhesion,T cells; until after 8 hours of exposure,did not significantly inhibit
"CXCL12: Recombinant mouse CXCL12, chemokine, chemoattractant for leukocytes",reversal of the inhibitory effect of DP on T cell adhesion,[2],did not reverse
same,increase in number of migrating splenocytes,"[1]; Con A-stimulated splenocytes, CXCL12 250 ng/ml in lower chamber, 4 hr",2.5 fold
same,increase in number of migrating splenocytes,"[3]; unstimulated splenocytes, CXCL12 250 ng/ml in lower chamber, 4 hr",6.2 fold
same,effect on adhesion of Con A-stimulated splenocytes to endothelial cells,[5],did not increase
adenosine deaminase,reversal of the inhibitory effect of DP on T cell adhesion,[2],did not reverse
same,effect by itself on splenocyte migration,"[1]; adenosine deaminase 1 U/ml, stimulated splenocytes",no effect
